Key:
Type in all cases: cell-based
STAT3 = molecular target: T1, STAT3 (Homo sapiens, UniProt P40763); assay: STAT3 reporter gene assay (luciferase), LNCaP stable cell line (pSTAT3-TA-luc), IL-6 stimulation
T1 construct: plasmid pSTAT3-TA-luc), which contains a stably operating STAT3 promoter; endogenous in cells
Procedure, shortened: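 LNCaP cells stably carrying pSTAT3-TA-luc, in RPMI1640 with 3% DCC-FBS, were treated with compound and then stimulated with 10 ng/mL IL-6 for 24–48 h at 37 °C. Luciferase activity was measured in lysates. A parallel plate measured viability by CellTiter-Glo, with stimulated 0.1% DMSO wells as the positive control.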

DU-145 = assay: Cell growth inhibition assay, prostate cancer cell line DU-145; details: Homo sapiens, DU-145 prostate cancer cell line
Procedure, shortened: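 Seed DU-145/HCT116 3,000 cells/well, SW626 5,000 cells/well; add compound dilution series; incubate 72–96 h, 37° C., 5% CO2; microscope check for precipitate; CellTiter-Glo, luminescence. Blank = no cells; vehicle = 0.1% DMSO.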

LNCaP = assay: Cell growth inhibition assay, prostate cancer cell line LNCaP (medium with 10 ng/mL IL-6); details: Homo sapiens, medium supplemented with 10 ng/mL of IL-6, 10,000 cells/well

T1 sequence (P40763 whole entry): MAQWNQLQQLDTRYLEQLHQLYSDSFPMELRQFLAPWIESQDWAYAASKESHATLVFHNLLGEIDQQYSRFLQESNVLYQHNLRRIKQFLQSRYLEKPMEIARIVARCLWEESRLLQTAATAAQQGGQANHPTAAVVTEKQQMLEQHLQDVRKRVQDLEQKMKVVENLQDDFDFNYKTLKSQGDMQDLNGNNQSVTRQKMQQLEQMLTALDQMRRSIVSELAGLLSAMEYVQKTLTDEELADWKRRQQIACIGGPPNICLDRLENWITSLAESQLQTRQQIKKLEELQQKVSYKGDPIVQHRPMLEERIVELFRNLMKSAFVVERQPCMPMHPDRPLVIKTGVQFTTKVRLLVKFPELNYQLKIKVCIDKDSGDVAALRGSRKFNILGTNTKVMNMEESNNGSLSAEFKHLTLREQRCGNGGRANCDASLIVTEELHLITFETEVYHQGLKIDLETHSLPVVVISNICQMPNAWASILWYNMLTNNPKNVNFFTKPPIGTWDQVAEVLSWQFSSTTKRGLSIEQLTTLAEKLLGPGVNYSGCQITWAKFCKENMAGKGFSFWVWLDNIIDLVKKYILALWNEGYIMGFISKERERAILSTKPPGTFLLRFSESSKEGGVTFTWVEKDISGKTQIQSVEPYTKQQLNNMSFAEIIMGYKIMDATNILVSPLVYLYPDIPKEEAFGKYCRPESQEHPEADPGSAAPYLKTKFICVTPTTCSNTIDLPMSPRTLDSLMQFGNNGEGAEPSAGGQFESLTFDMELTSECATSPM

Q: Which IC50 (STAT3) does the source give for `CC(C)(c1cc(Cl)cc(NC(=O)c2cc3cc(NS(C)(=O)=O)c(Cl)cc3s2)c1)N1CCCCC1` [Example 165, 6-chloro-N-(3-chloro-5-(2-(piperidin-1-yl)propan-2-yl)phenyl)-5-(methylsulfonamido)benzo[b]thiophene-2-carboxamide] here?
A: Its IC50 is 0.13 µM.

Q: And the IC50 (DU-145)?
A: Its IC50 is 0.07 µM.

Q: And the IC50 (LNCaP)?
A: The IC50 was 0.11 µM.

Q: With `CC(C)Oc1cc(CN2CCN(S(=O)(=O)N(C)C)CC2)cc(C(C)(C)c2cc(Cl)cc(NC(=O)c3cc4cc(NS(C)(=O)=O)ccc4s3)c2)c1` [Example 131, N-(3-chloro-5-(2-(3-((4-(N,N-dimethylsulfamoyl)piperazin-1-yl)methyl)-5-isopropoxyphenyl)propan-2-yl)phenyl)-5-(methylsulfonamido)benzo[b]thiophene-2-carboxamide] as the molecule, how does the IC50 (STAT3) read?
A: Its IC50 is 0.085 µM.

Q: What about the IC50 (DU-145) of the same molecule?
A: The IC50 was 0.1 µM.

Q: What about the IC50 (LNCaP) of the same molecule?
A: Its IC50 is 0.26 µM.

Q: Which IC50 (STAT3) does the source give for `CS(=O)(=O)Nc1cc2cc(C(=O)Nc3cc(Cl)cc(Oc4ccc(C(F)(F)F)cc4)c3)sc2cc1Cl` [Example 482, 6-chloro-N-(3-chloro-5-(4-(trifluoromethyl)phenoxy)phenyl)-5-(methylsulfonamido)benzo[b]thiophene-2-carboxamide] here?
A: Its IC50 is 0.016 µM.

Q: What about the IC50 (DU-145) of the same molecule?
A: The IC50 was 0.005 µM.

Q: And the IC50 (LNCaP)?
A: The IC50 was 0.013 µM.

Q: What does the source list for `CS(=O)(=O)Nc1ccc2sc(C(=O)Nc3cc(Cl)cc(Oc4ccc(Cl)c(OC(F)(F)F)c4)c3)cc2c1` [Example 468, N-(3-chloro-5-(4-chloro-3-(trifluoromethoxy)phenoxy)phenyl)-5-(methylsulfonamido)benzo[b]thiophene-2-carboxamide]?
A: IC50 (STAT3): 0.17 µM; IC50 (DU-145): 0.028 µM; IC50 (LNCaP): 0.04 µM

Q: Which results are given for `CC(C)(c1cc(Cl)cc(NC(=O)c2cc3cc(NS(C)(=O)=O)ccc3s2)c1)c1cccs1` [Example 170, N-(3-chloro-5-(2-(thiophen-2-yl)propan-2-yl)phenyl)-5-(methylsulfonamido)benzo[b]thiophene-2-carboxamide]?
A: IC50 (STAT3): 0.068 µM; IC50 (DU-145): 0.005 µM; IC50 (LNCaP): 0.059 µM

Q: How did the IC50 (STAT3) turn out when `CS(=O)(=O)Nc1ccc2sc(C(=O)Nc3cc(Cl)cc(Oc4cc(F)cc(F)c4)c3)cc2c1` [Example 463, N-(3-chloro-5-(3,5-difluorophenoxy)phenyl)-5-(methylsulfonamido)benzo[b]thiophene-2-carboxamide] was run?
A: The IC50 was 0.19 µM.

Q: What about the IC50 (DU-145) of the same molecule?
A: The IC50 was 0.15 µM.

Q: And the IC50 (LNCaP)?
A: Its IC50 is 0.27 µM.

Q: For `CS(=O)(=O)Nc1ccc2sc(C(=O)Nc3cc(Cl)cc(Oc4ccc(OC(F)(F)F)cc4)c3)cc2c1` [Example 454, N-(3-chloro-5-(4-(trifluoromethoxy)phenoxy)phenyl)-5-(methylsulfonamido)benzo[b]thiophene-2-carboxamide], which IC50 (STAT3) is on record?
A: Its IC50 is 0.12 µM.

Q: What about the IC50 (DU-145) of the same molecule?
A: The IC50 was 0.059 µM.

Q: And the IC50 (LNCaP)?
A: The IC50 was 0.83 µM.

Q: How did the IC50 (STAT3) turn out when `CS(=O)(=O)Nc1ccc2sc(C(=O)Nc3cc(Cl)cc(C4(c5ccc(Cl)cc5)CC4)c3)cc2c1` [Example 432, N-(3-chloro-5-(1-(4-chlorophenyl)cyclopropyl)phenyl)-5-(methylsulfonamido)benzo[b]thiophene-2-carboxamide] was run?
A: The IC50 was 0.049 µM.

Q: And the IC50 (DU-145)?
A: The IC50 was 0.06 µM.

Q: What about the IC50 (LNCaP) of the same molecule?
A: Its IC50 is 0.073 µM.

Q: How did the IC50 (STAT3) turn out when `COc1ccc(C(C)(C)c2cc(Cl)cc(NC(=O)c3cc4cc(NS(C)(=O)=O)ccc4s3)c2)s1` [Example 177, N-(3-chloro-5-(2-(5-methoxythiophen-2-yl)propan-2-yl)phenyl)-5-(methylsulfonamido)benzo[b]thiophene-2-carboxamide] was run?
A: Its IC50 is 0.047 µM.

Q: And the IC50 (DU-145)?
A: The IC50 was 0.058 µM.

Q: What about the IC50 (LNCaP) of the same molecule?
A: The IC50 was 0.089 µM.

Q: What does the source list for `CN(c1ccc2sc(C(=O)Nc3cc(Cl)cc(Oc4ccc(Cl)cc4)c3)cc2c1)S(C)(=O)=O` [Example 220, N-(3-chloro-5-(4-chlorophenoxy)phenyl)-5-(N-methylmethylsulfonamido)benzo[b]thiophene-2-carboxamide]?
A: IC50 (STAT3): 0.012 µM; IC50 (DU-145): 0.007 µM; IC50 (LNCaP): 0.013 µM

Q: Which IC50 (STAT3) does the source give for `CS(=O)(=O)Nc1ccc2sc(C(=O)Nc3cc(Cl)cc(-c4cccs4)c3)cc2c1` [Example 336, N-(3-chloro-5-(thiophen-2-yl)phenyl)-5-(methylsulfonamido)benzo[b]thiophene-2-carboxamide] here?
A: Its IC50 is 0.13 µM.

Q: And the IC50 (DU-145)?
A: The IC50 was 0.065 µM.

Q: What about the IC50 (LNCaP) of the same molecule?
A: Its IC50 is 0.21 µM.

Q: For `COc1cc(F)cc(Oc2cc(Cl)cc(NC(=O)c3cc4cc(NS(C)(=O)=O)c(Cl)cc4s3)c2)c1` [Example 484, 6-chloro-N-(3-chloro-5-(3-fluoro-5-methoxyphenoxy)phenyl)-5-(methylsulfonamido)benzo[b]thiophene-2-carboxamide], which IC50 (STAT3) is on record?
A: Its IC50 is 0.021 µM.

Q: And the IC50 (DU-145)?
A: The IC50 was 0.021 µM.

Q: What about the IC50 (LNCaP) of the same molecule?
A: Its IC50 is 0.037 µM.

Q: With `CS(=O)(=O)Nc1ccc2sc(C(=O)Nc3cc(Cl)cc(Oc4cc(Cl)cc(C#N)c4)c3)cc2c1` [Example 458, N-(3-chloro-5-(3-chloro-5-cyanophenoxy)phenyl)-5-(methylsulfonamido)benzo[b]thiophene-2-carboxamide] as the molecule, how does the IC50 (STAT3) read?
A: The IC50 was 0.25 µM.

Q: What about the IC50 (DU-145) of the same molecule?
A: The IC50 was 0.17 µM.

Q: What about the IC50 (LNCaP) of the same molecule?
A: The IC50 was 0.33 µM.

Q: `COc1cc(OC(F)(F)F)cc(C(C)(C)c2cc(F)cc(NC(=O)c3cc4cc(NS(C)(=O)=O)ccc4s3)c2)c1` [Example 63, N-(3-fluoro-5-(2-(3-methoxy-5-(trifluoromethoxy)phenyl)propan-2-yl)phenyl)-5-(methylsulfonamido)benzo[b]thiophene-2-carboxamide] was tested. Which IC50 (STAT3) did it give?
A: The IC50 was 0.034 µM.

Q: And the IC50 (DU-145)?
A: Its IC50 is 0.01 µM.

Q: And the IC50 (LNCaP)?
A: The IC50 was 0.037 µM.

Q: What does the source list for `COc1sccc1C(C)(C)c1cc(Cl)cc(NC(=O)c2cc3cc(NS(C)(=O)=O)ccc3s2)c1` [Example 176, N-(3-chloro-5-(2-(2-methoxythiophen-3-yl)propan-2-yl)phenyl)-5-(methylsulfonamido)benzo[b]thiophene-2-arboxamide]?
A: IC50 (STAT3): 0.036 µM; IC50 (DU-145): 0.038 µM; IC50 (LNCaP): 0.071 µM

Q: With `CC(C)(c1ccc(Cl)cc1)c1cc(Cl)cc(NC(=O)c2cc3cc(NS(C)(=O)=O)c(Br)cc3s2)c1` [Example 173, 6-bromo-N-(3-chloro-5-(2-(4-chlorophenyl)propan-2-yl)phenyl)-5-(methylsulfonamido)benzo[b]thiophene-2-carboxamide] as the molecule, how does the IC50 (STAT3) read?
A: The IC50 was 0.011 µM.

Q: And the IC50 (DU-145)?
A: The IC50 was 0.009 µM.

Q: What about the IC50 (LNCaP) of the same molecule?
A: The IC50 was 0.11 µM.

Q: With `Cc1cc(OC(C)C)cc(C(C)(C)c2cc(Cl)cc(NC(=O)c3cc4c(Br)c(NS(C)(=O)=O)ccc4s3)c2)c1` [Example 488, 4-bromo-N-(3-chloro-5-(2-(3-isopropoxy-5-methylphenyl)propan-2-yl)phenyl)-5-(methylsulfonamido)benzo[b]thiophene-2-carboxamide] as the molecule, how does the IC50 (STAT3) read?
A: The IC50 was 0.35 µM.

Q: What about the IC50 (DU-145) of the same molecule?
A: The IC50 was 1.1 µM.

Q: What about the IC50 (LNCaP) of the same molecule?
A: The IC50 was 2.5 µM.

Q: Which results are given for `CS(=O)(=O)Nc1cc2cc(C(=O)Nc3cc(Cl)cc(C4(c5ccc(Cl)cc5)CC4)c3)sc2cc1Cl` [Example 433, 6-chloro-N-(3-chloro-5-(1-(4-chlorophenyl)cyclopropyl)phenyl)-5-(methylsulfonamido)benzo[b]thiophene-2-carboxamide]?
A: IC50 (STAT3): 0.013 µM; IC50 (DU-145): 0.006 µM; IC50 (LNCaP): 0.01 µM

Q: How did the IC50 (STAT3) turn out when `COc1ccc(C(C)(C)c2cc(Cl)cc(NC(=O)c3cc4cc(NS(C)(=O)=O)c(Cl)cc4s3)c2)cc1` [Example 183, 6-chloro-N-(3-chloro-5-(2-(4-methoxyphenyl)propan-2-yl)phenyl)-5-(methylsulfonamido)benzo[b]thiophene-2-carboxamide] was run?
A: The IC50 was 0.01 µM.

Q: What about the IC50 (DU-145) of the same molecule?
A: The IC50 was 0.005 µM.

Q: And the IC50 (LNCaP)?
A: Its IC50 is 0.013 µM.

Q: Which results are given for `CS(=O)(=O)Nc1ccc2sc(C(=O)Nc3cc(Cl)cc(Oc4cc(F)cc(Cl)c4)c3)cc2c1` [Example 469, N-(3-chloro-5-(3-chloro-5-fluorophenoxy)phenyl)-5-(methylsulfonamido)benzo[b]thiophene-2-carboxamide]?
A: IC50 (STAT3): 0.36 µM; IC50 (DU-145): 0.086 µM; IC50 (LNCaP): 0.12 µM

Q: Which results are given for `COc1cccc(C(C)(C)c2cc(Cl)cc(NC(=O)c3cc4cc(NS(C)(=O)=O)ccc4s3)c2)c1` [Example 106, N-(3-chloro-5-(2-(3-methoxyphenyl)propan-2-yl)phenyl)-5-(methylsulfonamido)benzo[b]thiophene-2-carboxamide]?
A: IC50 (STAT3): 0.52 µM; IC50 (DU-145): 0.031 µM; IC50 (LNCaP): 0.11 µM

Q: What does the source list for `CC(C)Oc1cc(OC(F)(F)F)cc(C(C)(C)c2cc(Cl)cc(NC(=O)c3cc4cc(NS(=O)(=O)CC5CCOCC5)ccc4s3)c2)c1` [Example 198, N-(3-chloro-5-(2-(3-isopropoxy-5-(trifluoromethoxy)phenyl)propan-2-yl)phenyl)-5-(((tetrahydro-2H-pyran-4-yl)methyl)sulfonamido)benzo[b]thiophene-2-carboxamide]?
A: IC50 (STAT3): 0.03 µM; IC50 (DU-145): 0.017 µM; IC50 (LNCaP): 0.046 µM

Q: With `CC(C)(c1ccc(S(C)(=O)=O)cc1)c1cc(Cl)cc(NC(=O)c2cc3cc(NS(C)(=O)=O)ccc3s2)c1` [Example 161, N-(3-chloro-5-(2-(4-(methylsulfonyl)phenyl)propan-2-yl)phenyl)-5-(methylsulfonamido)benzo[b]thiophene-2-carboxamide] as the molecule, how does the IC50 (STAT3) read?
A: The IC50 was > 10 µM.

Q: What about the IC50 (DU-145) of the same molecule?
A: Its IC50 is 0.72 µM.

Q: What about the IC50 (LNCaP) of the same molecule?
A: The IC50 was > 1.1 µM.

Q: With `Cn1nccc1-c1ccc(C(C)(C)c2cc(Cl)cc(NC(=O)c3cc4cc(NS(C)(=O)=O)ccc4s3)c2)cc1` [Example 159, N-(3-chloro-5-(2-(4-(1-methyl-1H-pyrazol-5-yl)phenyl)propan-2-yl)phenyl)-5-(methylsulfonamido)benzo[b]thiophene-2-carboxamide] as the molecule, how does the IC50 (STAT3) read?
A: The IC50 was 0.31 µM.

Q: And the IC50 (DU-145)?
A: The IC50 was 0.14 µM.

Q: What about the IC50 (LNCaP) of the same molecule?
A: Its IC50 is 0.16 µM.

Q: `CC#Cc1cc(OC(F)(F)F)cc(C(C)(C)c2cc(Cl)cc(NC(=O)c3cc4cc(NS(C)(=O)=O)ccc4s3)c2)c1` [Example 114, N-(3-chloro-5-(2-(3-(prop-1-yn-1-yl)-5-(trifluoromethoxy)phenyl)propan-2-yl)phenyl)-5-(methylsulfonamido)benzo[b]thiophene-2-carboxamide] was tested. Which IC50 (STAT3) did it give?
A: The IC50 was 0.02 µM.

Q: And the IC50 (DU-145)?
A: The IC50 was 0.014 µM.

Q: And the IC50 (LNCaP)?
A: Its IC50 is 0.061 µM.

From patent US10562912B2 (C&C Research Laboratories, priority 2013, dated 2020)
